According to patent US10233209B2, “Inhibitors of the farnesoid x receptor and uses in medicine” (The United States of America, as represented by the …, priority 2013, dated 2019):
Entries after “also recorded” stand apart in the source; their conditions may differ.

Assays:
[1] = Gly-MCA incubation with fecal extract (hydrolysis by gut bacteria); type: in vitro ADME, mouse; settings: 50 μM Gly-MCA; 0.1 mg/mL fecal extract; TβMCA positive control
Description: Fecal proteins were prepared from the fecal sample (0.5 g) in pH 7.4 PBS (5.0 ml) using sonication. Incubation was carried out in 3 mM sodium acetate buffer, pH 5.2, containing 0.1 mg/ml fecal protein and 50 μM Gly-MCA or T-β-MCA in a final volume of […]. After a 20-min incubation at 37° C., the samples were plunged into dry ice to stop the reaction. 100 of μL methanol was directly added to the […] reaction mixture. After centrifuging at 14,000 g for 20 min, […] of the supernatant was transferred to an autosampler vial subjected to analysis by a UPLC system coupled with a XEVO triple quadrupole tandem mass spectrometer (Waters Corp., Milford, Mass.).
Fecal extracts were prepared as described above. Gly-MCA (50 μM) was incubated with fecal extract (0.1 mg/mL). The negative control was fecal extract alone. The positive control was fecal extract (0.1 mg/mL) and TβMCA acid (50 μM).

[2] = Gly-MCA in mouse ileum after oral gavage; type: in vivo; settings: oral gavage 0, 1, 5, 50 mg/kg in corn oil
Description: Gly-MCA was given to mice via oral gavage at dosages of 0, 1, 5, and 50 mg/kg of Gly-MCA, with the Gly-MCA dosed in corn oil. Gly-MCA was detected using ultra performance liquid chromatography-electrospray ionization-quadrupole time-of-flight mass spectrometry (UPLC-ESI-QTOFMS).

[3] = liver toxicity 24 h after Gly-MCA dosing (ALT, AST); type: in vivo, mouse; settings: 1, 5, 50 mg/kg; after 24 h; vs vehicle
Description: Mice were dosed with vehicle or Gly-MCA at 1 mg/kg, 5 mg/kg, and 50 mg/kg. After 24 h, […] (ALT) and […] (AST) levels were determined and the results shown in FIG. 37.

[4] = system: HFD-treated C57BL/6N mice; experiment: Gly-MCA in mice fed a high-fat diet (prevention of obesity, insulin resistance, NAFLD); type: in vivo, mouse
Description: (§1) High-fat diet (HFD) (60% kcal consisting of fat) was purchased from Bioserv. […] Fxr^fl/fl and Fxr^ΔIE (Kim et al., J. Lipid Res. 48:2664-2672, 2007) mice were backcrossed with C57BL/6N mice for over 10 generations. For the antibiotic (the combination of bacitracin, neomycin, and streptomycin) study, male C57BL/6N mice from 6 weeks of age were fed a high-fat diet (“HFD) and administered 0.1% (w/v) of each compound (the combination of bacitracin, neomycin, and streptomycin) in the drinking water. […] For TβMCA in vivo, male C57BL/6N mice from 6 weeks of age were fed a HFD and treated with the antibiotics (0.1% of each compound of bacitracin, neomycin, and streptomycin combination) for 3 days. Vehicle (saline), TCA (400 mg/kg body weight, dissolved in saline) or a combination of TCA and TβMCA (400 mg/kg body weight of each compound, dissolved in saline) were orally administered to the mice and followed by a second dose 12 h later. The mice were killed 2 h later for tissue collection. For the Gly-MCA study, Gly-MCA was custom synthesized. Bacon-flavored dough pills were produced as described (Walker et al., Toxicol. Appl. Pharmacol. 260:65-69, 2012) for oral administration of Gly-MCA (0.25 mg Gly-MCA/pill, dose of 10 mg/kg). Mice were trained to eat the dough pills prior to the study. For the prevention of obesity, insulin resistance and NAFLD, male wild-type (WT) C57BL/6N mice, 6- to 8-weeks-old, were fed a high-fat diet (Bio-Serv, Frenchtown, N.J.; 60 kcal % fat) from the age of 6 weeks and were orally administered with vehicle (control pills) or Gly-MCA (0.25 mg/pill/day, dose 10 mg/kg). C57BL/6N mice fed a high-fat diet for 12 weeks were administered (0.25 mg Gly-MCA/pill, dose of 5 mg/kg). Leptin-deficient db/db mice, 6- to 8-weeks-old, fed a chow diet, were administered Gly-MCA (0.25 mg/pill/day, 10 mg/kg). Mice were housed individually in their home cages. Cumulative food intake and TEEbal were measured for 1 week in vehicle and Gly-MCA-treated mice from 6 to 7 weeks of HFD. TEEbal was measured as previously described (Ravussin et al., Int. J. Obesity 37:399-403, 2013).
The mucosa of intestine was gently scraped and liver was taken and both were flash frozen in liquid nitrogen and stored at −80° C. until RNA was prepared. RNA was extracted from frozen intestine and liver using TRIzol reagent (Invitrogen, Carlsbad, Calif.). cDNA was synthesized from 1 μg total RNA using Superscript II reverse transcriptase (Invitrogen, Carlsbad, Calif.). qPCR primers were designed with qPrimerDepot. Measured mRNA levels were normalized to those of 18S ribosomal RNA and expressed as fold change relative to those of control group.
Lipidomics analysis: For serum lipidomics analysis 25 μl serum were extracted by 4-fold cold chloroform:methanol (2:1) solution containing 2 μM LPC (17:0), PC (17:0), SM (17:0) and CER (17:0) (Avanti Polar Lipids, Alabaster, Ala.) as internal standards. The samples were vortexed for 30 s and then allowed to stand for 5 min at room temperature. The mixture was centrifuged at 13,000 rpm for 5 min and then the lower organic phase was collected and evaporated at room temperature under vacuum. The residue was dissolved in chloroform:methanol (1:1), followed by diluting with isopropanol:acetonitrile:H2O (2:1:1) containing 2 μM PC (17:0) prior to UPLC-MS analysis. For tissue lipidomics analysis, about 50 mg of accurately weighted tissues were homogenized with 700 μL methanol: H2O (4:3) solution and then extracted using 800 μL chloroform containing 2 μM LPC (17:0), SM (17:0) and CER (17:0) as internal standards. The homogenate was incubated at 37° C. for 20 min followed by centrifuged for 20 min at 13,000 rpm. The lower organic phase was transferred to a new tube and dried under vacuum. The residue was suspended with 100 chloroform:methanol (1:1) solution and then diluted with isopropanol:acetonitrile:H2O (2:1:1) solution containing 2 μM PC (17:0) before injection. […]

[5] = system: db/db mice; experiment: Gly-MCA in leptin receptor-deficient (db/db) mice; type: in vivo, mouse
Description: as §1

[6] = system: HFD-induced obese mice; experiment: Gly-MCA in C57BL/6N mice made obese by 12 weeks of high-fat diet; type: in vivo, mouse; settings: 5 mg/kg
Description: as §1

## C[C@H](CCC(=O)NCC(=O)O)[C@H]1CC[C@H]2[C@@H]3[C@@H](O)[C@@H](O)[C@@H]4C[C@H](O)CC[C@]4(C)[C@H]3CC[C@]12C [Gly-MCA, glycine-β-muricholic acid]
[1]
  stability: hydrolysis to β-MCA on incubation with fecal extract: stable in the intestine
[2]
  Gly-MCA detected in mouse ileum (stability in intestine): stable in the intestine
[3]
  liver toxicity (serum ALT and AST levels): do not develop significant liver toxicity; also recorded: did not exhibit significant liver toxicity
[4]; Gly-MCA treatment for 9 weeks
  Gly-MCA levels in the feces: markedly increased
  Gly-MCA levels in the ileum: markedly increased
[4]; HFD
  liver weights: decreased
[4]; HFD 7 weeks
  hepatic lipid droplets (liver histology): marked reduction in hepatic lipid droplets
[4]; HFD 9 weeks
  Shp and Fgf15 mRNAs in the ileum: decreased
  expression of Shp mRNA in the liver: similar
  intestinal mRNAs of ceramide de novo synthesis-related genes (Sptic3, Cers4, Degs1, Smpd3): significantly lower
  serum ALT levels: significantly decreased
  serum AST levels: significantly decreased
  serum triglyceride levels: remained similar
[4]; HFD, 10 mg/kg oral, after one week of treatment
  body weight gain: reduced body weight gain
[4]; HFD, 6 to 7 weeks
  ITT: insulin sensitivity: significantly increased
  energy expenditure (TEEbal): increased the energy expenditure significantly
  food intake: comparable
[4]; HFD, after 7 weeks of treatment
  absolute fat mass (NMR): significantly decreased
[4]; HFD, relative to vehicle
  hepatic triglyceride contents decreased to: approximately 51%
[4]; after 6 weeks of HFD
  GTT: blood glucose levels after glucose loading: significantly reduced blood glucose levels
[5]; 6 weeks
  absolute fat mass (NMR): significantly decreased
  hepatic lipid droplets (liver histology): significant decrease in hepatic lipid droplets
  liver TG contents: dramatically improved
  liver weights: decreased
  serum ALT levels: significantly decreased
  serum AST levels: significantly decreased
  serum triglyceride levels: remained similar
[5]; Gly-MCA 6 weeks, 10 mg/kg
  body weight: reduced body weight
[6]; HFD-induced obese mice, from two weeks of treatment
  body weight gain: reduced body weight gain
[6]; obese mice, 6 weeks
  absolute fat mass (NMR): significantly decreased
  hepatic lipid droplets (liver histology): marked amelioration in hepatic lipid droplets
  liver weights: reduced
